Here are results for nine compounds from ChEMBL document CHEMBL5046290, “Design, Synthesis, and Preclinical Profiling of GSK3739936 (BMS-986180), an Allosteric Inhibitor of HIV-1 Integrase with Broad-Spectrum Activity toward 124/125 Polymorphs” (J Med Chem, 2022).

A value given as a limit tells only on which side of the number the result lay.

Broadly, the IC50 is the concentration at which inhibition is half-maximal. The EC50 is the concentration at which the effect is half-maximal. What is called CC50 is the concentration giving 50% cytotoxicity. As a reminder, the half-life is the time needed for the level to fall by half in the phase considered. By clearance is commonly meant the rate of elimination divided by the concentration. Low values mean inefficient removal, high ones efficient removal.

Data set [1] in a line: Displacement of [3H](S)-2-(tert-butoxy)-2-(2-methyl-4-(p-tolyl)quinolin-3-yl)acetic acid from LEDGF-binding site of recombinant T124/T125 polymorphic HIV1 integrase by LIDIA assay. Also noted: species or system Human immunodeficiency virus 1. In general terms: Displacement assays read how much labelled ligand stays bound in the presence of the test substance.
Data set [2] deals with Human immunodeficiency virus 1. The data set is described as follows: Antiviral activity against recombinant HIV1 NLRep-Rluc harbouring polymorphic T124/T125 integrase infected in human MT-2 cells assessed as inhibition of virus growth in presence of fetal bovine serum by measuring luciferase activity after 5 days. It counts as functional, organism-based, MT2.
Data set [3] can be described thus: Cytotoxicity against human MT2 cells assessed as cell viability measured after 4 days by XTT assay. The class given is toxicity, cell-based. The note with it: time 4 day.
Data set [4] in a line: Metabolic stability in rat liver microsome assessed half life at 0.5 uM by LC-MS/MS analysis. The note with it: liver microsomes. It counts as ADME.
A short description of data set [5]: Metabolic stability in human liver microsome assessed half life at 0.5 uM by LC-MS/MS analysis. It counts as ADME. The conditions noted are these: liver microsomes. (Liver microsomes are a subcellular fraction often used to study metabolism.)
A short description of data set [6]: Clearance in Sprague-Dawley rat at 1 mg/kg, iv by LC-MS/MS analysis. The class given is ADME, organism-based. The note with it: in vivo.
Data set [7] relates to Human immunodeficiency virus 1. The data set is described as follows: Antiviral activity against recombinant HIV1 NLRep-Rluc harbouring polymorphic AA infected in human MT-2 cells assessed as inhibition of virus growth in presence of fetal bovine serum by measuring luciferase activity after 5 days. It counts as functional, organism-based. The note with it: Human immunodeficiency virus 1, NLRep, MT2, 120 h.

Data set [8] deals with Human immunodeficiency virus 1. The data set is described as follows: Antiviral activity against recombinant HIV1 NLRep-Rluc harbouring polymorphic AT infected in human MT-2 cells assessed as inhibition of virus growth in presence of fetal bovine serum by measuring luciferase activity after 5 days. The conditions noted are these: Human immunodeficiency virus 1, NLRep, MT2, 120 h. It counts as functional, organism-based.

The subject of data set [9] is Human immunodeficiency virus 1. The data set is described as follows: Antiviral activity against recombinant HIV1 NLRep-Rluc harbouring polymorphic NA infected in human MT-2 cells assessed as inhibition of virus growth in presence of fetal bovine serum by measuring luciferase activity after 5 days. The class given is functional, organism-based. The note with it: Human immunodeficiency virus 1, NLRep, MT2, 120 h.

For data set [10], the system named is Human immunodeficiency virus 1. The data set is described as follows: Antiviral activity against recombinant HIV1 NLRep-Rluc harbouring polymorphic TA infected in human MT-2 cells assessed as inhibition of virus growth in presence of fetal bovine serum by measuring luciferase activity after 5 days. It counts as functional, organism-based. The conditions noted are these: Human immunodeficiency virus 1, NLRep, MT2, 120 h.

The subject of data set [11] is Human immunodeficiency virus 1. Nature of the data set: Antiviral activity against recombinant HIV1 NLRep-Rluc harbouring polymorphic NT infected in human MT-2 cells assessed as inhibition of virus growth in presence of fetal bovine serum by measuring luciferase activity after 5 days. The class given is functional, organism-based. The note with it: Human immunodeficiency virus 1, NLRep, MT2, 120 h.

The test system of data set [12] is Human immunodeficiency virus 1. Nature of the data set: Antiviral activity against recombinant HIV1 A128T-resitant mutant […] infected in human MT-2 cells assessed as inhibition of virus growth in presence of fetal bovine serum by measuring luciferase activity after 5 days. The class given is functional, organism-based. The note with it: Human immunodeficiency virus 1, MT2, 120 h.

For data set [13], the target named is T1, Solute carrier organic anion transporter family member 1B1 (Homo sapiens, UniProt Q9Y6L6).
T1 sequence (Q9Y6L6 whole entry): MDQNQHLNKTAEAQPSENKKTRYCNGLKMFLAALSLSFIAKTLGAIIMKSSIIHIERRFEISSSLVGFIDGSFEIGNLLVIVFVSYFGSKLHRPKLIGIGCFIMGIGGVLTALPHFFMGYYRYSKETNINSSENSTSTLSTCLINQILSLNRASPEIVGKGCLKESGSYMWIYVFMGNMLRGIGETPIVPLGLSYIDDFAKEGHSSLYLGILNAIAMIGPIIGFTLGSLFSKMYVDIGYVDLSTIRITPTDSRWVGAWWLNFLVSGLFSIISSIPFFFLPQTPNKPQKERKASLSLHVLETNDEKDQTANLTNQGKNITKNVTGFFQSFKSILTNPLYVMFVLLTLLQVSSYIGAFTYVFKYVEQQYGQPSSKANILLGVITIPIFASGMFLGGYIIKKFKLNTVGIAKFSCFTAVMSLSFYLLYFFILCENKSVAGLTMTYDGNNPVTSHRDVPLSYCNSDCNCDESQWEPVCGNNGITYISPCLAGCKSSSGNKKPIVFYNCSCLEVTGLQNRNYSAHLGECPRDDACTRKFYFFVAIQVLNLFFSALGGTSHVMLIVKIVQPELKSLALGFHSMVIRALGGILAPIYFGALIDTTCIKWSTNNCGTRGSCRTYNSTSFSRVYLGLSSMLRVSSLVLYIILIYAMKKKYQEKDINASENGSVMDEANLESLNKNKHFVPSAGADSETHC
Nature of the data set: Inhibition of OATP1B1 (unknown origin). The class given is ADME.

In data set [14] the test system is Human immunodeficiency virus 1. Nature of the data set: Anti retroviral activity against HIV-1 NL4-3 harboring at AA polymorph infected in human MT4 cells by CellTitre-Glo luminescent reagent based assay. It counts as functional, organism-based. The note with it: Human immunodeficiency virus 1, NL4-3, MT4.
In data set [15] the test system is Human immunodeficiency virus 1. Nature of the data set: Anti retroviral activity against HIV-1 NL4-3 harboring at TA polymorph infected in human MT4 cells by CellTitre-Glo luminescent reagent based assay. The conditions noted are these: Human immunodeficiency virus 1, NL4-3, MT4. The class given is functional, organism-based.
For data set [16], the system named is Human immunodeficiency virus 1. The data set is described as follows: Anti retroviral activity against HIV-1 NL4-3 harboring at AT polymorph infected in human MT4 cells by CellTitre-Glo luminescent reagent based assay. The note with it: Human immunodeficiency virus 1, NL4-3, MT4. It counts as functional, organism-based.
Data set [17] concerns Human immunodeficiency virus 1. Nature of the data set: Anti retroviral activity against HIV-1 NL4-3 harboring at TT polymorph infected in human MT4 cells by CellTitre-Glo luminescent reagent based assay. The class given is functional, organism-based. The note with it: Human immunodeficiency virus 1, NL4-3, MT4.
Data set [18] can be described thus: Stability in human liver microsome assessed as half life. It counts as ADME. The conditions noted are these: liver microsomes.
The subject of data set [19] is Human immunodeficiency virus 1. The data set is described as follows: Anti retroviral activity against HIV-1 NL4-3 harboring at NT polymorph infected in human MT4 cells by CellTitre-Glo luminescent reagent based assay. It counts as functional, organism-based. The note with it: Human immunodeficiency virus 1, NL4-3, MT4.
In data set [20] the test system is Human immunodeficiency virus 1. The data set is described as follows: Anti retroviral activity against HIV-1 NL4-3 harboring at NA polymorph infected in human MT4 cells by CellTitre-Glo luminescent reagent based assay. The class given is functional, organism-based. The conditions noted are these: Human immunodeficiency virus 1, NL4-3, MT4.
[21] abbreviates: Human immunodeficiency virus 1, NLRep, MT2, 120 h.

On to `Cc1ncsc1CCOc1ccc(-c2c(C)nc(C)c([C@H](OC(C)(C)C)C(=O)O)c2N2CCC(C)(C)CC2)cc1`, for which the IC50 in data set [1] came to 12.7 nM. For the same compound, the EC50 in [2] (setting [21]) was found to be 0.8 nM; in data set [7], 0.7 nM; in data set [8] it was 1 nM; in data set [9] it was 1.3 nM; in data set [10], 0.75 nM; in data set [11], 1 nM. Also, the EC50 in data set [12] came out at 107 nM. Also, the CC50 at 96 h in [3] was at least 25000 nM. Also, the half-life at 0.5 µM is over 120 min in [4] and 90 min in [5]. Further, the clearance in [6] was 69 mL/min/kg.
On to `Cc1nc(C)c([C@H](OC(C)(C)C)C(=O)O)c(N2CCC(C)(C)CC2)c1-c1ccc(OCCc2ccc(C#N)cc2)cc1`, for which the IC50 was determined as 13.3 nM in [1] and 100 nM in data set [13]. For the same compound, the EC50 in data set [2] (setting [21]) amounted to 1.5 nM. The CC50 at 96 h in [3] is at least 33500 nM.
In the case of `Cc1nc(C)c([C@H](OC(C)(C)C)C(=O)O)c(N2CCC(C)(C)CC2)c1-c1ccc(NCCc2ccc(F)cc2)cc1`, the IC50 in data set [1] turned out to be 18 nM. Besides, the EC50 in data set [2] (setting [21]) came to 5.4 nM. Also, in data set [3], the CC50 at 96 h was at least 32000 nM. Besides, the half-life at 0.5 µM in [4] stood at 110 min; in data set [5], 41 min. Also, in [6], the clearance is 12 mL/min/kg.
Regarding `Cc1noc(C)c1CCOc1ccc(-c2c(C)nc(C)c([C@H](OC(C)(C)C)C(=O)O)c2N2CCC(C)(C)CC2)cc1`, the IC50 in data set [1] was determined as 11.4 nM. For the same compound, in [2] (setting [21]), the EC50 was determined as 1.5 nM. Also, in data set [3], the CC50 at 96 h is at least 25000 nM. The half-life at 0.5 µM in data set [4] is 79 min; in data set [5], 28 min. The compound further returned a clearance in data set [6] of 58.9 mL/min/kg.
In the case of `Cc1nc(C)c([C@H](OC(C)(C)C)C(=O)O)c(N2CCC(C)(C)CC2)c1-c1ccc(OCCc2ccc(F)c(F)c2)cc1`, the IC50 in [1] is 6.7 nM. The EC50 in data set [2] (setting [21]) came to 2.7 nM; in data set [7], 3.7 nM; in data set [8], 2.7 nM; in data set [9], 7 nM; in data set [10], 1.8 nM; in data set [11], 2.1 nM. Moreover, the EC50 in [12] is 255 nM. The CC50 at 96 h in data set [3] is at least 33500 nM. The half-life at 0.5 µM in [4] is 51 min; in data set [5], over 120 min. The compound further came in with a clearance in data set [6] of 5.8 mL/min/kg.
In the case of `Cc1sc(-c2ccncc2)c(C2=CCC(C)(C)CC2)c1[C@H](OC(C)(C)C)C(=O)O`, the EC50 in data set [14] was 1500 nM; in data set [15] it was 1600 nM; in [16], 14000 nM; in [17], 31 nM.
Regarding `Cc1nc(C)c(CCOc2ccc(-c3c(C)nc(C)c([C@H](OC(C)(C)C)C(=O)O)c3N3CCC(C)(C)CC3)cc2)s1`, the IC50 in [1] turned out to be 11.7 nM. For the same compound, the EC50 in [2] (setting [21]) was 1.1 nM. In data set [3], the CC50 at 96 h was at least 25000 nM. For the same compound, the half-life at 0.5 µM in data set [4] was over 120 min; in data set [5], 55 min. This compound also displayed a clearance in data set [6] of 30.1 mL/min/kg.
In the case of `Cc1nc(C)c([C@H](OC(C)(C)C)C(=O)O)c(N2CCC(C)(C)CC2)c1-c1ccc(OC2COCC2c2ccc(F)cc2)cc1` (stereo in doubt; 40b), the IC50 in data set [1] amounted to 7.9 nM. For the same compound, the EC50 is 0.6 nM in data set [2] (mt2); 1.7 nM in [7]; 1.3 nM in data set [8]; 3.7 nM in data set [9]; 0.92 nM in [10]; 0.53 nM in [11]. The EC50 in data set [12] is over 500 nM. Further, the half-life at 0.5 µM was over 120 min in data set [4] and 47 min in data set [5]. In addition, the clearance in [6] was found to be 23.4 mL/min/kg. The half-life in [18] was 47 min.
On to `Cc1nc2ccccc2c(-c2ccc3c4c(ccnc24)CCO3)c1[C@H](OC(C)(C)C)C(=O)O` [BI-224436], for which the EC50 is 32 nM in data set [19]; 32 nM in data set [14]; 32 nM in [15]; 32 nM in data set [16]; 32 nM in data set [17]; 49 nM in [2] (setting [21]). For the same compound, the EC50 in data set [7] was 28.1 nM; in data set [8], 48.7 nM; in data set [9] it was 49.1 nM; in data set [10] it was 49.5 nM; in data set [11] it was 56.3 nM; in [12], over 500 nM. The same compound gave an EC50 in [20] of 32 nM.
